In the series the test system is mice marrow cells.

Procedure: The study objective was detection and quantitative estimate of cytogenetic (mutagenic) activity of pharmacologic substances in polychromatophil cells (PCC) of mammal marrow. The method is based on microscopic recording of cells with micronuclei.
The experiments were performed to 2 months old male and female F1 (CBAx C57BI6/J) cross-breed mice weighing 18-20 g. Each group included 6 animals. The animals were kept at 12 hours light pattern with free food and water access. Animal experiments for assessment of mutagenic properties of the PPNC with single and five-time dosing were conducted in compliance with official records. Three sessions of experiments were carried out with corresponding controls: therapeutic dose was tested on male animals with a single introduction; subtoxic dose was tested on male animals with a single introduction; therapeutic dose was tested on male animals with a single introduction; subtoxic dose was tested on male animals and female with five-time introduction. […] The PPNC dosing for assessment of mutagenic activity was calculated based on the maximum human recommended daily therapeutic dose (TD). […] In order to calculate an experiment dosing for mice, a conversion factor is recommended that takes into account a human or animal body surface area to weight ratio. In our study, it was 8.33. Therefore, the mice TD was approximately 8.33 x human TD (0.42 mg/kg).
As a subtoxic dose, 10mg/kg, the maximum possible in this experiment conditions dosing was used, as the substance was presented in 0.1 mg/ml concentration, and the normally used amount of substance for mice is 0.1 ml per 10 g.
Seven animal groups were formed: four experimental groups and three corresponding reference groups. The substance in the amount of 0.1 mg/kg was introduced five times at 24 hours interval to males and females. […]
Marrow cell preparations for micronuclei count were made by a standard method in compliance with common guidelines [20]. […] 2,000 polychromatophil cells from each animal were analyzed in encoded preparations. […]

In the case of `O=P1(N(CCCl)CCCl)NCCCO1` (stereo not drawn) [Cyclophosphamide, cyclophosphamide], the “frequency of micronucleus cells” value (20 mg/kg intraperitoneally, male mice, 3.16 % in reference) is recorded as 62.1%. Moreover, the “increased frequency of micronucleus cells” value (20 mg/kg intraperitoneally, male mice, P<0.001) was 19.6 times. Also, where the note is “20 mg/kg, compared to control P<0.005”, the “polychromatophilic to normochromatic erythrocytes ratio” value is recorded as “found to shift to the latter”.

(Values after patent EP2730584B1, “PROTEIN-P[…] OBTAINED FROM NERVOUS TISSUE OF HOOFED LIVESTOCK EMBRYOS, PROCESS FOR PREPARING SAME AND PHARMACEUTICAL COMPOSITION” (Aktsionernoe Obschestvo "Pharm-Sintez", priority 2011, dated 2012).)
